Test results taken from patent US20240011094A1, “METHODS FOR DIAGNOSIS AND TREATING POLYCYSTIC OVARY SYNDROME (PCOS)” (INSTITUT NATIONAL DE LA SANTÉ ET DE LA RECHERCHE MÉDICALE, priority 2020, published 2024).
pIC50, pKd: −log10 of the molar value. No end group written: not given here.

Key:
[1] = system: PAMH F3 female offspring (PCOS-like mice); assay: SAM treatment of PAMH F3 female mice: estrous cyclicity, LH, T, body composition, pancreatic islets; type: in vivo, mouse
Procedure: Control F1 and PAMH F1-F3 female offspring were weaned at post-natal day P21 and checked for vaginal opening (VO) and time of first estrus. Anogenital distance (AGD) and body mass (grams, g) were measured at different ages during post-natal development (P30, 35, 40, 50 and 60). At VO and in adulthood (P60), vaginal smears were performed daily for 16 consecutive days (4-cycles) for analysis of age of first estrus and estrous cyclicity. Vaginal cytology was analyzed under an inverted microscope to identify the specific stage of the estrous cycle. The reproductive competency of these animals was determined by pairing the following mice: CNTR F1 females mated with CNTR F1 males, CNTR F1 males mated with PAMH F1-F3 females, PAMH F1-F3 females mated with PAMH F1-F3 males, for a period of 3 months. Unexperienced males and primiparous females, selected from at least three different litters, were used for the 90-days mating protocol test. Number of pups/litter (number of pups), fertility index (number of litters per females over 3 months), and time to first litter (number of days to first litter after pairing) were quantified per treatment and pairing.
LH levels were determined by a sandwich ELISA, as described previously (Steyn et al., 2013), using the mouse LH-RP reference provided by A. F. Parlow (National Hormone and Pituitary Program, Torrance, CA). Plasma T levels were analyzed using a commercial ELISA (Demeditec Diagnostics, GmnH, DEV9911) (Moore et al., 2015) according to the manufacturers' instructions.
Whole body fat, fluids, and lean tissue mass were determined by Nuclear Magnetic Resonance (MiniSpec mq 7.5, RMN Analyser, Bruker) according to the manufacturer's recommendations.
(§1) PAMH F3 female offspring (6 months-old) were cycled for 10 days before treatment, and for additional 15 days during the treatment. CNTR female offspring (6 months-old) were not treated and were cycled for 25 days. Vaginal cytology was analyzed under an inverted microscope to record the specific stage of the estrous cycle. PAMH F3 offspring were injected intraperitoneally (i.p.) daily for 15 days with 200 μL of a solution containing 0.01M phosphate buffered saline (PBS, pH 7.4) or with SAM (50 mg/Kg/day; New England Biolegends, Cat. B9003S). This concentration was chosen based on previous in vivo pharmacological studies using the same drug (Li et al., 2012). Tail-blood samples were collected for LH and T measurements at dioestrus before the beginning of the treatments, at day 10, and at the end of the treatment, at day 25.

ovaries of PAMH F3 mice = assay: RT-qPCR gene expression in ovaries of SAM-treated PAMH F3 mice; type: in vivo, mouse
Procedure: Ovaries tissues were harvest from control F1 and PAMH F3 female mice, frozen ovaries were homogenized using 1 ml of Trizol (ThermoFisher Scientific, Cat #15596026) with a tissue homogenizer and total RNA was isolated using RNeasy Lipid Tissue Mini Kit (Qiagen; Cat #74804) following the manufacturer's instructions. For gene expression analyses, cDNA was synthetized from 1000 ng of total RNA using the High capacity RNA-to-cDNA kit (Applied Biosystems, Cat #4387406) using the manufacturer's recommended cycling conditions. Real-time PCR was carried out on Applied Biosystems 7900HT Fast Real-Time PCR system using exon-boundary-specific TaqMan® Gene Expression Assays (Applied Biosystems) (Table S4). Data were analyzed by using the 2^−ΔΔCT method (Livak and Schmittgen, 2001) and normalized to housekeeping genes Beta-actin (ActB) levels. Values are expressed relative to control values, as appropriate, set at 1.
as §1

NgTET1 [2] = settings: cited from earlier work
NgTET1 [3] = molecular target: T1, NgTET1 (Naegleria gruberi, UniProt D2W6T1); settings: cited from earlier work
T1 sequence (D2W6T1 1-321): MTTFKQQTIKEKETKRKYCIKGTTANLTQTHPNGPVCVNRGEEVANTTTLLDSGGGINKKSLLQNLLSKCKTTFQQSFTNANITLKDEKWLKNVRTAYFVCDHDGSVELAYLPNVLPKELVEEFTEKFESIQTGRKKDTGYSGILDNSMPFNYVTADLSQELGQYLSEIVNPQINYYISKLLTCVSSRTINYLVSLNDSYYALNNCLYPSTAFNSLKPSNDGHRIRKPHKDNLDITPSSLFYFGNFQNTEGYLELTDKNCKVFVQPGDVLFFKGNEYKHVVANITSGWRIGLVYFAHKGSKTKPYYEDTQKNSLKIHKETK

mTET1 = mTET1 (Mus musculus, UniProt Q3URK3); settings: cited from earlier work
Sequence of mTET1 (Q3URK3 whole entry, the tested form may be a part): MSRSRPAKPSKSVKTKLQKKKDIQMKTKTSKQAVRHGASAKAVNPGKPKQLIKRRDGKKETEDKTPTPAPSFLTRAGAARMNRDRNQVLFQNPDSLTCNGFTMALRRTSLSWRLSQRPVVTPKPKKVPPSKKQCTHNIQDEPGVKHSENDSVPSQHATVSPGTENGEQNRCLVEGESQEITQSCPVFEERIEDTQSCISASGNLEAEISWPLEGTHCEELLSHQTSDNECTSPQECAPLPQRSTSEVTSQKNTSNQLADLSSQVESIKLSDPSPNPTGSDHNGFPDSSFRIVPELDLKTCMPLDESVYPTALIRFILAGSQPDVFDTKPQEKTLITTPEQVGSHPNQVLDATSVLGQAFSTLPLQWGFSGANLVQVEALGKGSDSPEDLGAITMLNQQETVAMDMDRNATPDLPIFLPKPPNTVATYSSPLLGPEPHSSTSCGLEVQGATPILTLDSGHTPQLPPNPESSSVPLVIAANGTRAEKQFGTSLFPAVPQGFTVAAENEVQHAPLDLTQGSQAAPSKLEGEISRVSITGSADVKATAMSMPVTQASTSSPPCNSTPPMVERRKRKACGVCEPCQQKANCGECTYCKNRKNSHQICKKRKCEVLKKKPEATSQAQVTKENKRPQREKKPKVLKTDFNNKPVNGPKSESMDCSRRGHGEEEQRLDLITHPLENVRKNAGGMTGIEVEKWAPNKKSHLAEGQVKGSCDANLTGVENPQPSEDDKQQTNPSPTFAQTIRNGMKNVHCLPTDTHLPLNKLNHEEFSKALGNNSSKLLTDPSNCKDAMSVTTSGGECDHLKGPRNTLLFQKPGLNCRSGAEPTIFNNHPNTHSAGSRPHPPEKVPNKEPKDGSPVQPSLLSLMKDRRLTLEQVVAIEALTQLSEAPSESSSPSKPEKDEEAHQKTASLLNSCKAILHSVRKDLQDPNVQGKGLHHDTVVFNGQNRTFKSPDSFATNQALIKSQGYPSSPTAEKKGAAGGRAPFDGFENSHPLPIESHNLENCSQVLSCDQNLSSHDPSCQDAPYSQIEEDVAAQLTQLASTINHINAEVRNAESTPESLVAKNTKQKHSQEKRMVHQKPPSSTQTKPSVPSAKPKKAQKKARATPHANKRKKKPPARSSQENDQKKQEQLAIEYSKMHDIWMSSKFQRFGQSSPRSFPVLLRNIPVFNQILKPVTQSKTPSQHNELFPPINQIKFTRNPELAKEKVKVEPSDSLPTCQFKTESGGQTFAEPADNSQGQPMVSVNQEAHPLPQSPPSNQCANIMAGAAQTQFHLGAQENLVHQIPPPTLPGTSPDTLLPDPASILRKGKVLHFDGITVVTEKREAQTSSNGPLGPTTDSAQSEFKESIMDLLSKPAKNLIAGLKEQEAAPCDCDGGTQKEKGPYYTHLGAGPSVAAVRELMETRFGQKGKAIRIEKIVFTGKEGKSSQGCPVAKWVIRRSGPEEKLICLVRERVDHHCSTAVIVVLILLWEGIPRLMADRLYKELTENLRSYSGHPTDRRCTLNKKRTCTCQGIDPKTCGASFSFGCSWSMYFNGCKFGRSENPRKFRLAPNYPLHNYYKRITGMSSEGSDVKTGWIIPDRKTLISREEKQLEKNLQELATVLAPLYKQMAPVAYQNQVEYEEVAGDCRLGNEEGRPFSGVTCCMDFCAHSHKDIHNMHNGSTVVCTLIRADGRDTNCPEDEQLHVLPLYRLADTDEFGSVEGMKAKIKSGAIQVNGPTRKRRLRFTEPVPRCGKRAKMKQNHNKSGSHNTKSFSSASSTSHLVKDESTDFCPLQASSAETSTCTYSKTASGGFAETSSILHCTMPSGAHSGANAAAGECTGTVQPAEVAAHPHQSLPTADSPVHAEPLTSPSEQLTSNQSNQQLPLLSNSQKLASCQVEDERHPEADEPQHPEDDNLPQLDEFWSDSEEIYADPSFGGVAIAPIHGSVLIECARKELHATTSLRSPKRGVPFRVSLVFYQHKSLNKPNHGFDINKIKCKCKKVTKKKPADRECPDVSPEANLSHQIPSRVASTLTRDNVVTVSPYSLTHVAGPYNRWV

[4] = molecular target: T2, TET1 catalytic domain (TET1CD) (Homo sapiens, UniProt Q8NFU7); settings: cited from earlier work
T2 sequence (Q8NFU7 1418-2136 limits assumed): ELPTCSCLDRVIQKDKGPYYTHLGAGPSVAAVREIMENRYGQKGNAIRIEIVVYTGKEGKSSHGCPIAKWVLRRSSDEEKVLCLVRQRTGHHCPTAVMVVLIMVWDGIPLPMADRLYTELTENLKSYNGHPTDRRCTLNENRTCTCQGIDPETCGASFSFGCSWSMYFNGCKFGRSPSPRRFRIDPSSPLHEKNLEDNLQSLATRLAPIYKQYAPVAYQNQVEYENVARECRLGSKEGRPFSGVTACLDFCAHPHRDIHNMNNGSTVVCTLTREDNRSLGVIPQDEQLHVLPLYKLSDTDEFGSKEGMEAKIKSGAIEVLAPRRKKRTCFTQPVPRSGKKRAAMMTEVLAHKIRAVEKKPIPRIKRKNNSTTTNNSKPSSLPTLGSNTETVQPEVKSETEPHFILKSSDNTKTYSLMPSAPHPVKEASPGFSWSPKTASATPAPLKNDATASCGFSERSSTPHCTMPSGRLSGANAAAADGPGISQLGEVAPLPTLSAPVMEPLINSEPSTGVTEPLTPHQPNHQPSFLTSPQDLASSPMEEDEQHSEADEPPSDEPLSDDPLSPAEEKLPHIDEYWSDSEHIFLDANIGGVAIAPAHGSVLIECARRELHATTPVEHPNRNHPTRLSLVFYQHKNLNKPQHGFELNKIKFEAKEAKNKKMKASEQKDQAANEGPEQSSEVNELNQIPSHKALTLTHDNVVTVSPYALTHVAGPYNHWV

[5] = PAMH F3 females, SAM 50 mg/kg/day i.p. for 15 days
[6] = PAMH F3 females, dioestrus, day 25, SAM 50 mg/kg/day i.p. for 15 days

## C[S@@+](CC[C@H](N)C(=O)[O-])C[C@H]1O[C@@H](n2cnc3c(N)ncnc32)[C@H](O)[C@@H]1O (stereo in doubt) [SAM, S-Adenosyl methionine]
[1]; PAMH F3 females, 6 months-old, SAM 50 mg/kg/day i.p. for 15 days
  percentage of completed estrous cycles: 75%
[1]; [5]
  body mass composition, % of fat mass: normalized
  body mass composition, % of lean mass: normalized
  size of the islet of Langerhans: normalized
  time spent in each estrous cycle stage (ovulation): restored normal ovulation
[1]; [6]
  LH concentrations: normalized
  T concentrations: normalized
[1]; PAMH F3 mice, postnatal SAM treatment
  major PCOS-like neuroendocrine, reproductive and metabolic traits: rescue
Ovaries of PAMH F3 mice
  Hdc ovarian gene expression: rescue
  NF-κB mRNA in ovaries: normalized
  Ptgs2 mRNA in ovaries: normalized
  Sorbs2 expression in ovaries: remained unaltered
  Uhrf1 expression in ovaries: restored
Ovaries of PAMH F3 mice; compared with controls
  Tet1 transcript levels in ovarian tissues: unaltered

## O=C(O)CCC(=O)C(=O)O [Molecule 3, 2-oxoglutraric acid]
NgTET1 [2]
  pIC50: 3.60

## O=C(O)CNC(=O)C(=O)O [Molecule 30, N-oxalylglycine]
NgTET1 [2]
  pIC50: 4.31

## O=C(O)/C=C/C(=O)N(O)CCCCCCCCNC(=S)Nc1ccc(-c2c3ccc(=O)cc-3oc3cc(O)ccc23)c(C(=O)O)c1 [Molecule 33]
NgTET1 [3]
  pKd: 6.60

## O=C(O)c1ccnc(C(=O)O)c1 [Molecule 35, 2,4-pyridinedicarboxylic acid]
NgTET1 [2]
  pIC50: 4.57

## Fumarate [Molecule 32]
mTET1
  pIC50: 3.41

## cyclic peptide TET1 inhibitor, SEQ ID 5: (Ac)YYRVKTYYQITYVYLSC [Molecule 38]
NgTET1 [2]
  pIC50: 5.84

## cyclic peptide TET1 inhibitor, SEQ ID No 3: (Ac)YLIYAYYTWWEHSC (Ac-YLIYAYYTWWEHSC; not fully specified (bridges)) [Molecule 36]
NgTET1 [2]
  pIC50: 5.83
[4]
  selectivity, inhibition of TET1CD over TET2CD: tenfold

## cyclic peptide TET1 inhibitor, SEQ ID No 4: (Ac)YWYLPSYRVPWFC [Molecule 37]
NgTET1 [2]
  pIC50: 5.95
